These results are taken from patent US20220105054A1, “ABSORPTION ENHANCER OF CINNAMIC ACID DERIVATIVE” (YAMADA BEE COMPANY, INC., priority 2020, published 2022).

SMILES strings stand for the structures. Read-outs that look alike come from different tables or passages of the source.

The conditions of this series: rat, in vivo; for AUC Mean ± SD / Cmax Mean ± SD: po, 50 mg/kg. Here is the method: The following administration liquids were prepared. 10% propylene glycol: a propylene glycol liquid having a concentration of 10% was prepared by diluting propylene glycol with distilled water.
Propolis solution: the required amount of propolis powder (Brazilian green propolis) was weighed and ground in a mortar, and the 10% propylene glycol was added to dissolve the powder to prepare a propolis solution with a concentration of 25 mg/mL as the propolis concentration.
Curcumin suspension: the required amount of curcumin powder (C. longa extract (ethyl acetate extract powder, curcumin content of 95% by mass)) was weighed and ground in a mortar, and then the 10% propylene glycol was added to suspend the powder to prepare a curcumin suspension with a curcumin concentration of 100 mg/mL.
Eighteen 7-week-old male rats (Slc: Wistar/ST, SPF, Japan SLC, Inc.) were acclimated for 7 days. The rats were allowed to freely ingest the solid feed CRF-1 (Oriental Yeast Co., ltd.). The rats were fasted for 8 to 10 hours before the administration of the administration liquids. The rats were divided into three groups of six rats each by a stratified allocation method using EXSUS (Version 10.0.0, EP Croit Co., Ltd.) so that the weight of each group was equal.
In the propolis group, the propolis solution was administered immediately after the administration of 10% propylene glycol. In the propolis+curcumin A group, the propolis solution was administered immediately after the administration of the curcumin suspension. In the propolis+curcumin B group, the propolis solution was administered about 30 minutes after the administration of the curcumin suspension. The administration was carried out in a volume of 2 ml/kg rat body weight for each administration solution. In other words, 50 mg of propolis and 200 mg of curcumin were administered per 1 kg of rat body weight. The administration was carried out under no anesthesia by using a syringe (Terumo Corporation) and an oral feeding needle for rats (Fuchigami Kikai, Ltd).
Blood collection of rats was carried out once 30 minutes before the administration of propolis solution (but before the administration of curcumin suspension in the group with the curcumin suspension administrated) and 0.5, 1, 1.5, 2, 3, 6, 9, and 24 hours after the administration of propolis solution. At each blood sampling time, the tail of rats was disinfected with 70% ethanol under no anesthesia, and then the tip of the tail was cut with a razor to collect about 150 μL of leaking blood by using a hematocrit tube (Fisher Scientific 22-362-566). Nine hours after administration of the propolis solution, feeding was resumed for all fasting animals.
The blood, which had been stored in ice after collection, was centrifuged (1600 ×g, 10 min, 4° C.) using a micro high-speed cooling centrifuge (model MX-100: Tomy Seiko Co., Ltd.) to collect plasma from the blood. The plasma was frozen and stored in a −80° C. freezer.
The concentrations of p-coumaric acid, artepillin C, drupanin, culifolin, capillartemisin A, 3,4-dihydroxy-5-prenyl-(E)-cinnamic acid, and 2,2-dimethylchromene-6-(E)-propenoic acid, kaempferide, 6-methoxy kaempferide, and dihydro kaempferide in the resulting plasma were quantified by LCMS.
For each ingredient, the maximum blood concentration (Cmax) and the area under the curve (AUC) were calculated from the resulting concentrations. AUC is an indicator of the total amount of each ingredient absorbed into the body. […] The ratio in the table indicates the ratio of the mean value of the propolis+curcumin A group to that of the propolis group. Statistics were carried out by t-test.

Take `CC1(C)C=Cc2cc(/C=C/C(=O)O)ccc2O1` [2,2-dimethylchromene-6-(E)-propenoic acid]: the “AUC Ratio” value was 1.27, the “Cmax Ratio” value was determined as 1.56, the “AUC Mean ± SD” value turned out to be 84.5 ± 4.49 and the “Cmax Mean ± SD” value stood at 18.48 ± 4.02.
As to `CC(C)=CCc1cc(/C=C/C(=O)O)cc(O)c1O` [3,4-dihydroxy-5-prenyl-(E)-cinnamic acid], the “AUC Mean ± SD” value worked out at 51.02 ± 28.27 and the “Cmax Mean ± SD” value is reported as 7.5 ± 7.5. For the same compound, for the setting “male, Slc: Wistar/ST”, the “AUC Ratio” value turned out to be 1.25 and the “Cmax Ratio” value worked out at 1.53.
In the case of `CC(C)=CCc1cc(/C=C/C(=O)O)cc2c1OC(C)(C)C=C2` [Culifolin], the “AUC Ratio” value is recorded as 1.26, the “Cmax Ratio” value came out at 1.34, the “AUC Mean ± SD” value is reported as 1088.92 ± 68.35 and the “Cmax Mean ± SD” value is 68.98 ± 5.16.
For `COc1ccc(-c2oc3cc(O)cc(O)c3c(=O)c2O)cc1` [kaempferide, reference compound], the “increase in absorption compared to the propolis group” value (“increase in absorption” below) is “no significant increase in absorption was observed”.
In the case of `CC(C)=CCc1cc(/C=C/C(=O)O)ccc1O` [Drupanin], the “AUC Ratio” value is reported as 1.41, the “Cmax Ratio” value turned out to be 1.98, the “AUC Mean ± SD” value was 486.19 ± 34.29 and the “Cmax Mean ± SD” value stood at 93.12 ± 19.93.
Regarding `COc1ccc(-c2oc3cc(O)c(OC)c(O)c3c(=O)c2O)cc1` [6-methoxy kaempferide, reference compound], the “increase in absorption” value is recorded as “no significant increase in absorption was observed”.
Turning to `CC(C)=CCc1cc(/C=C/C(=O)O)cc(CC=C(C)C)c1O` [Artepillin C], the “AUC Ratio” value worked out at 1.39, the “Cmax Ratio” value is listed as 1.7, the “AUC Mean ± SD” value is on record as 811.33 ± 191.31 and the “Cmax Mean ± SD” value was 77.7 ± 13.11.
In the case of `O=C(O)/C=C/c1ccc(O)cc1` [p-Coumaric acid], the “AUC Mean ± SD” value was determined as 983.44 ± 372.02 and the “Cmax Mean ± SD” value came out at 343.72 ± 41.6. For the same compound, for the setting “male, Slc: Wistar/ST”, the “AUC Ratio” value was 1.07 and the “Cmax Ratio” value is 1.42.
With `COc1ccc(C2Oc3cc(O)cc(O)c3C(=O)C2O)cc1` (stereo not shown) [dihydro kaempferide, reference compound], the “increase in absorption” value is “no significant increase in absorption was observed”.
As for `CC(C)=CCc1cc(/C=C/C(=O)O)cc(C/C=C(\C)CO)c1O` [Capillartemisin A], the “AUC Ratio” value was determined as 1.83, the “Cmax Ratio” value was 1.91, the “AUC Mean ± SD” value is 109.74 ± 12.25 and the “Cmax Mean ± SD” value came to 10.39 ± 2.01.
